Columns and labels:
OBT-DM [1] = molecular target: T1, OBT-DM (Arabidopsis thaliana, UniProt Q9SAA9); experiment: Equilibrium inhibitory constant for OBT-DM (no method given); assay type: binding
T1 sequence (Q9SAA9 1-488): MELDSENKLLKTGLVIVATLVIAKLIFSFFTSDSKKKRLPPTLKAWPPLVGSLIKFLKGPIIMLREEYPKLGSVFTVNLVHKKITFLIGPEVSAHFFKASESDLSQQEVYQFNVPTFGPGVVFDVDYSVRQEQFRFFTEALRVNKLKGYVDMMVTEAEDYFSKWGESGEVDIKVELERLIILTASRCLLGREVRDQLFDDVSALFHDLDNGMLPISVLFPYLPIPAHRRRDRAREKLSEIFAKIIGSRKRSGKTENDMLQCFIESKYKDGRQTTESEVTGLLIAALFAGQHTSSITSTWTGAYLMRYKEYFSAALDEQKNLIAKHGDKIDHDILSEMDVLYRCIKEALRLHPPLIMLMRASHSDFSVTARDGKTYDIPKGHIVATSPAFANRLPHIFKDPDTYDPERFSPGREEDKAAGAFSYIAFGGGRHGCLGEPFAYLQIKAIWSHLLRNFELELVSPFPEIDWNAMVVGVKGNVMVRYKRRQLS

OBT-DM [2] = molecular target: T2, OBT-DM (Arabidopsis thaliana, UniProt Q9SAA9); experiment: 384-well assay for identification of inhibitors of OBT-DM, read at 413 nm with 432 nm as reference; assay type: binding; parameters: made in house; host or cells: E. coli Rosetta DE3 pLysS; details: 10 μM compound, 0.4 mg/ml OBT-DM, 20 min room temperature; negative control wells 0.09-0.12
T2 sequence (Q9SAA9 35-488): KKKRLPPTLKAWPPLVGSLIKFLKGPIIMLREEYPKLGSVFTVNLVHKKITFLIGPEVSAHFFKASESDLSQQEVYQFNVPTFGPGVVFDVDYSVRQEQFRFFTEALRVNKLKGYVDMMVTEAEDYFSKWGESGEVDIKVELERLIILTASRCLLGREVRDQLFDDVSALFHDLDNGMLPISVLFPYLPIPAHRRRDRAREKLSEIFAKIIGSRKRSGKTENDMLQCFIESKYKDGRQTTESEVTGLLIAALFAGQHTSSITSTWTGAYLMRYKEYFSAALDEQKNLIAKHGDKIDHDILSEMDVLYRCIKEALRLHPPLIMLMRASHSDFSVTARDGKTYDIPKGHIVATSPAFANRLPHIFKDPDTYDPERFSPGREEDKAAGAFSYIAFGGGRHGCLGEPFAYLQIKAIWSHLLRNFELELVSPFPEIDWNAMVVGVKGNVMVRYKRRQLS
Protocol: The assay was performed using 0.4 mg/ml OBTDM in 50 mM HEPES, pH 7.2, and 0.01% Tween 20 in all wells plus 10 μM Ketoconazole (positive control) in 50 mM HEPES, pH 7.2, and 0.01% Tween 20 in plate rows A-H; 10 μM compounds numbered 1-24 in 50 mM HEPES, pH 7.2, and 0.01% Tween 20 in row I; and 50 mM HEPES, pH 7.2, and 0.01% Tween 20 in rows K-P (negative control).
The assay was set up in a 384-well plate format and initiated by the addition of 40 μl of 20 μM Ketoconazole (ICN Biomedicals, Inc., Irvine, Calif.) in 50 mM HEPES, pH 7.2, 0.01% Tween 20, to rows A-H to a final concentration of 10 μM (positive control) and 40 μl of 50 mM HEPES, pH 7.2, 0.01% Tween 20, to rows K-P (negative control). Test compounds were added to a concentration of 10 μM in row I by manual addition of 40 μl of a 20 μM solution (compounds assigned numbers from 1-24). Then 40 μl of an 0.8 mg/ml solution of OBT-DM protein in 50 mM HEPES, pH 7.2, 0.01% Tween 20 (from Example 2) was added to all wells to a final concentration of 0.4 mg/ml via multidrop.

OBT-DM [3] = molecular target: T2, OBT-DM; details: for wavelength of maximum absorbance in difference spectrum / wavelength of minimum absorbance in difference spectrum: 0.25 mg/ml OBT-DM in 50 mM HEPES pH 7.2, 1 μL of 1 mM inhibitor added, spectrum 300-500 nm
Protocol: An OBT-DM solution (0.25 mg/ml) in 50 mM HEPES, pH 7.2, was placed in a micro-quartz cuvette with 1 cm path length. The solution was used to blank a Hewlett Packard 8453 spectrometer. Then 1 μL of a 1 mM solution of type II inhibitor in 50% (v/v) DMSO ethanol was added and the spectrum was acquired between the 300 and 500 nm region.

Nc1nc[nH]n1 [Compound 10, 3-amino-1,2,4-triazole]
Ki (OBT-DM [1]): > 10 µM
absorbance reading at 413 nm using 432 nm as reference wavelength (OBT-DM [2]): negative result

OC(Cn1cncn1)(Cn1cncn1)c1ccc(F)cc1F [Compound 2, Fluconazole]
wavelength of maximum absorbance in difference spectrum (OBT-DM [3]): 432 nm
wavelength of minimum absorbance in difference spectrum (OBT-DM [3]): 413 nm

CC(=O)N1CCN(c2ccc(OCC3COC(Cn4ccnc4)(c4ccc(Cl)cc4Cl)O3)cc2)CC1 (stereo not drawn) [Ketoconazole]
wavelength of maximum absorbance in difference spectrum (OBT-DM [3]): 432 nm
wavelength of minimum absorbance in difference spectrum (OBT-DM [3]): 413 nm
magnitude of the type II difference spectrum signal (OBT-DM [3]; comparison among inhibitors studied): maximum magnitude of the signal

Clc1ccccc1C(c1ccccc1)(c1ccccc1)n1ccnc1 [Compound 4, Clotrimazole]
wavelength of maximum absorbance in difference spectrum (OBT-DM [3]): 432 nm
wavelength of minimum absorbance in difference spectrum (OBT-DM [3]): 413 nm

From US20050074829A1, “Methods for identifying inhibitors of sterol 14-alpha-demethylase” (priority 2003, published 2005)
